From article PMC5471252, “Anti-leukemia activity of a Hsp70 inhibitor and its hybrid molecules” (Scientific Reports, 2017)

Columns and labels:
[1] = test system: human leukemia cells (HL-60, KG-1, THP-1, U937, Jurkat and K562 cells); assay: MTT assay, all tested leukemia cells (summary statements); settings: all tested leukemia cells, MTT, compared with Az, GD and imatinib
Description: To assess anti-leukemia activity of Az, several human leukemia cells (HL-60 cells, acute myeloid leukemia; Jurkat cells, acute T-lymphocytic leukemia; KG-1 cells, acute myeloid leukemia; U937 cells, acute myeloid leukemia; THP-1 cells, acute monocytic leukemia; K562 cells, chronic myeloid leukemia) were incubated with Az for 48 h. […] An MTT assay was then performed to measure cell viabilities.
Cells were exposed to each compound (a HCl salt form) at various concentrations for indicated time periods (24 or 48 h) in culture media. MTT assays were conducted according to known procedures. The absorbance at 570 nm was determined by employing a microplate reader (TECAN, Infinite® 200 PRO).

[2] = test system: THP-1 cells; assay: MTT assay, cell viability of THP-1 cells; type: cell-based; settings: Homo sapiens, 48 h, mean ± s.d., n = 3, read-out: IC50 values of compounds for leukemia cells
[3] = test system: Jurkat cells; assay: MTT assay, cell viability of Jurkat cells; type: cell-based; settings: Homo sapiens, 48 h, mean ± s.d., n = 3, read-out: IC50 values of compounds for leukemia cells
[4] = test system: K562 cells; assay: MTT assay, cell viability of K562 cells; type: cell-based; settings: Homo sapiens, 48 h, mean ± s.d., n = 3, read-out: IC50 values of compounds for leukemia cells
[5] = test system: HL-60 cells; assay: MTT assay, cell viability of HL-60 cells; type: cell-based; settings: Homo sapiens, 48 h, mean ± s.d., n = 3, read-out: IC50 values of compounds for leukemia cells
[6] = test system: U937 cells; assay: MTT assay, cell viability of U937 cells; type: cell-based; settings: Homo sapiens, U-937, 48 h, mean ± s.d., n = 3, read-out: IC50 values of compounds for leukemia cells
[7] = test system: KG-1 cells; assay: MTT assay, cell viability of KG-1 cells; type: cell-based; settings: Homo sapiens, 48 h, mean ± s.d., n = 3, read-out: IC50 values of compounds for leukemia cells
[8] = biological target: T1, ATPase domain of Hsp70 (Homo sapiens, UniProt P0DMV8); assay: PiColorLock ATPase assay, Hsp70; type: biochemical; settings: 10, 20 and 40 µM compound, 10 µM ATP, compared with Az
T1 construct: mixed with 2 µg of an ATPase domain of Hsp70
Description: (§1) Inhibition by the hybrids on the ATPase activities of Hsp70 and Hsp90 was determined by using a PiColorLock assay and on the kinase activity of Abl by using a radiometric assay.
ATPase assays. ATPase assays were conducted in 20 mM Tris-HCl, 10 mM MgCl2 and 100 mM KCl buffer solution mixed with 2 µg of an ATPase domain of Hsp70. Each compound (10, 20 and 40 µM) was added to the protein solution in a 96-well plate. After the mixture was placed in the plate for 30 min at room temperature, 10 µM ATP was added to the mixture and the mixture was incubated for 3 h at 37 °C. To measure ATPase activity, 10 µl of a 1:100 mixture of PiColorLock Gold reagent (Innova Biosciences) and an accelerator was added to each well. After 5 min at room temperature, 4 µL of a stabilizer was added to the mixture and then incubated for additional 30 min before taking measurement. The absorbance at 620nm was measured by using an Infinite® 200 PRO multimode microplate reader. The same procedure was used to measure ATPase activity of Hsp90 except concentrations of protein (1 µg) and ATP (1 mM).
(§2) Supplementary Figure S10. Inhibitory effect of hybrid molecules on Hsp70, Hsp90 and Abl activities. (a) ATPase activity of Hsp70 was measured by using a Pi-Colorlock assay after incubation of an ATPase domain of Hsp70 with various concentrations of indicated molecules and 10 µM ATP (mean ± s.d., n =3). (b) ATPase activity of Hsp90 was measured by using a Pi-Colorlock assay after incubation of Hsp90 with various concentrations of indicated molecules and 1 mM ATP (mean ± s.d., n = 3). (c) Abl kinase activity was measured by using a radiometric kinase assay after incubation of Abl with a peptide substrate in the presence of various concentrations of indicated molecules and γ-^33P-ATP (mean ± s.d., n =3).

[9] = biological target: T2, human recombinant Abl (Homo sapiens, UniProt P00519); assay: Radiometric Abl kinase assay; type: biochemical; settings: compared with imatinib
T2 construct: purchased Eurofins Pharma Discovery Services (UK Limited); host or cells: insect cells
Description: as §1
Abl kinase assays. Abl kinase assays were conducted by Eurofins Pharma Discovery Services (UK Limited). Briefly, each compound was pre-incubated with 0.25 µg/mL of human recombinant Abl (expressed in insect cells) in 20 mM MOPS containing 1 mM EDTA, 0.01% Brij-35, 5% glycerol, 0.1% β-mercaptoethanol and 1 mg/mL BSA for 15 min at 37 °C. To the enzyme mixture was added 0.2 mg/mL of poly(Glu:Tyr), 10 µM ATP and 0.25 µCi [γ^33P]ATP. After incubation for 30 min, 3% H3PO4 was added to the mixture to stop enzyme reactions. An aliquot was removed and counted to determine the amount of [^33P]poly(Glu:Tyr) formed by using a Trilux scintillation counter (Wallac Microbeta 12-detector model, Perkin Elmer).
as §2, with “(c) Abl kinase activity was measured by using a radiometric kinase assay after incubation of Abl with a peptide substrate in the presence of various concentrations of indicated molecules and γ-^33P-ATP (mean ± s.d., n =3).” left out

[10] = test system: HL-60 and K562 cells; assay: Flow cytometry, fluorescein-annexin V and PI staining; type: cell-based, human; settings: 24 h; 10 µM Az, 10 µM GD or 4 µM Az-O3-GD
Description: To determine whether Az promotes leukemia cell death via apoptosis, acute leukemia HL-60 and chronic leukemia K562 cells were independently incubated with Az. The treated cells were then exposed to a mixed solution of fluorescein-annexin V and propidium iodide (PI) and flow cytometry analysis was conducted. […] The size of the treated cells was also assessed by using flow cytometry. […] We also investigated if the mitochondrial membrane potential in cells treated with Az is disrupted. To test this possibility, HL-60 and K562 cells were exposed to Az and subsequently stained with a membrane potential sensitive JC-1 probe. […] This serves as another evidence for apoptosis induced by Az.
HL-60 and K562 cells were incubated with each compound for 24 h in culture media. Cells were re-suspended with 500 μL binding buffer (10 mM HEPES, […] and 2.5 mM CaCl2, pH 7.5) and then incubated with the FITC-annexin V apoptosis detection kit with PI according to the protocol provided by the manufacturer. Flow cytometry was carried out by using a BD FACSVerse™ instrument (BD Biosciences) and the data were analyzed by using a FlowJo™ software (BD Biosciences).

T1 sequence (P0DMV8 2-386 limits assumed): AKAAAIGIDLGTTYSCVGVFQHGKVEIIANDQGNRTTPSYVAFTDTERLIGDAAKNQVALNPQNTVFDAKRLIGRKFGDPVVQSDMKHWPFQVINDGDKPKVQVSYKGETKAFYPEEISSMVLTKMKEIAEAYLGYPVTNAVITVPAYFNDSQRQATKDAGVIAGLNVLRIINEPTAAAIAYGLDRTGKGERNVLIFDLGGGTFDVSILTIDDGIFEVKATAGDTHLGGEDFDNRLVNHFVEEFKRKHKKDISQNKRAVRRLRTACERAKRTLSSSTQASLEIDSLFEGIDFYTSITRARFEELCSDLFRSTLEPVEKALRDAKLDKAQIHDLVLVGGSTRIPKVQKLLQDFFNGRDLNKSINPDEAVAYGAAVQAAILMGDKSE
T2 sequence (P00519 whole entry): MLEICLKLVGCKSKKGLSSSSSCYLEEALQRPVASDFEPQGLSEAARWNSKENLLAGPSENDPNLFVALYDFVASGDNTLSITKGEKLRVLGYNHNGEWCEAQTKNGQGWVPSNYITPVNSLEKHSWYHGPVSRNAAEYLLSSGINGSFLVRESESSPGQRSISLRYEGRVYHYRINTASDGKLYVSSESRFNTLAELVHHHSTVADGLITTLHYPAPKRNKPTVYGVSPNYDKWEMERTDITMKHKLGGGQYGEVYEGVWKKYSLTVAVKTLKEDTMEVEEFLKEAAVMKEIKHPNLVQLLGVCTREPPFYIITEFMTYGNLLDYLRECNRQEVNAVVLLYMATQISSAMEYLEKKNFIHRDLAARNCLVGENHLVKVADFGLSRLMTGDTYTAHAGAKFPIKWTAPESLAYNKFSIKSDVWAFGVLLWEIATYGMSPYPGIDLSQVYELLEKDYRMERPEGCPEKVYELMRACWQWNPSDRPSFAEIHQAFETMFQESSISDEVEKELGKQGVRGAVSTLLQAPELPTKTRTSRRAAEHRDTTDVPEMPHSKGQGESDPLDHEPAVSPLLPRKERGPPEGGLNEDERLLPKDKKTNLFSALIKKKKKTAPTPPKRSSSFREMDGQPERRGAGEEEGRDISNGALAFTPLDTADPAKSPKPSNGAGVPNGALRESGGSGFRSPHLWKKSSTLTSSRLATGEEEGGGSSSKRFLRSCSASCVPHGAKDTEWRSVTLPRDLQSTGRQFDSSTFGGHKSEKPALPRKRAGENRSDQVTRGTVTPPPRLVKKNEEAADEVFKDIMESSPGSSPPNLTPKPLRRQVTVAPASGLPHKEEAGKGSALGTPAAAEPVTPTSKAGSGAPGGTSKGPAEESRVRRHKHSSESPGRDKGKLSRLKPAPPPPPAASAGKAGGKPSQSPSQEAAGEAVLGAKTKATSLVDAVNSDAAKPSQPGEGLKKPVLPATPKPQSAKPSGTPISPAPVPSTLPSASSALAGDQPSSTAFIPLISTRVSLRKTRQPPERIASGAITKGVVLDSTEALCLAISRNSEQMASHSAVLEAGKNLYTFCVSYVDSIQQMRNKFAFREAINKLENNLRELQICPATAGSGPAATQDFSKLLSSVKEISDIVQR

| Structure (SMILES) | cytotoxicity relative to the individual inhibitors [1] | IC50 [2] [µM] | IC50 [3] [µM] | IC50 [4] [µM] | IC50 [5] [µM] | IC50 [6] [µM] | IC50 [7] [µM] | inhibition of the ATPase activity of Hsp70 [8] | inhibitory activity towards Abl kinase [9] | apoptosis, annexin V binding and PI uptake [10] |
| --- | --- | --- | --- | --- | --- | --- | --- | --- | --- | --- |
| COc1ccc(-c2nc(-c3cc(C(F)(F)F)cc(C(F)(F)F)c3)n(Cc3ccc(C(=O)NCCOCCOCCNC4=C5C[C@@H](C)C[C@H](OC)[C@H](O)[C@@H](C)/C=C(\C)[C@H](OC(N)=O)[C@@H](OC)/C=C\C=C(/C)C(=O)NC(=CC4=O)C5=O)cc3)c2-c2ccc(OC)cc2)cc1 [Az-GD] | greatly enhanced cytotoxicities | 0.36 ± 0.12 | 0.89 ± 0.25 | 0.63 ± 0.21 | 0.73 ± 0.22 | 1.12 ± 0.32 | 0.91 ± 0.41 | – | – | – |
| COc1ccc(-c2nc(-c3cc(C(F)(F)F)cc(C(F)(F)F)c3)n(Cc3ccc(C(=O)NCCOCCOCCNC(=O)COCCOCCOCCNC4=C5C[C@@H](C)C[C@H](OC)[C@H](O)[C@@H](C)/C=C(\C)[C@H](OC(N)=O)[C@@H](OC)/C=C\C=C(/C)C(=O)NC(=CC4=O)C5=O)cc3)c2-c2ccc(OC)cc2)cc1 [Az-amide-GD] | poorer cytotoxicity | – | – | – | – | – | – | lower inhibitory activity towards Hsp70 than Az | – | – |
| COc1ccc(-c2nc(-c3cc(C(F)(F)F)cc(C(F)(F)F)c3)n(Cc3ccc(C(=O)NCCOCCOCCOCCOCCN4CCN(Cc5ccc(C(=O)Nc6ccc(C)c(Nc7nccc(-c8cccnc8)n7)c6)cc5)CC4)cc3)c2-c2ccc(OC)cc2)cc1 [Az-O4-Imatinib] | poorer cytotoxicity | > 10 | > 10 | 4.5 ± 0.88 | > 10 | > 10 | > 10 | much weaker inhibitors of Hsp70 compared to Az | significantly reduced inhibitory activities towards Abl kinase compared to imatinib | – |
| COc1ccc(-c2nc(-c3cc(C(F)(F)F)cc(C(F)(F)F)c3)n(Cc3ccc(C(=O)NCCOCCOCCOCCN4CCN(Cc5ccc(C(=O)Nc6ccc(C)c(Nc7nccc(-c8cccnc8)n7)c6)cc5)CC4)cc3)c2-c2ccc(OC)cc2)cc1 [Az-O3-Imatinib] | poorer cytotoxicity | > 10 | > 10 | 4.3 ± 0.91 | > 10 | > 10 | > 10 | much weaker inhibitors of Hsp70 compared to Az | significantly reduced inhibitory activities towards Abl kinase compared to imatinib | – |
| COC1=C2C[C@@H](C)C[C@H](OC)[C@H](O)[C@@H](C)/C=C(\C)[C@H](OC(N)=O)[C@@H](OC)/C=C\C=C(/C)C(=O)NC(=CC1=O)C2=O [GD, geldanamycin, reference compound] | – | 0.9 ± 0.33 | 4.8 ± 1.06 | 3.7 ± 1.11 | 2.3 ± 0.74 | 4.8 ± 1.22 | 3.2 ± 1.21 | – | – | induces apoptosis |
